Reference: PubChem BioAssay AID248 (DTP/NCI, 2004)
“And” between values parts separate entries of the source, which are not always exact repeats. Equal values may be shown once. Inconclusive results and toxic doses are left out.

System: L1210 leukemia ip in BDF1 mice, survival T/C
Assay: NCI In Vivo Anticancer Drug Screen. Data for tumor model L1210 Leukemia (intraperitoneal) in B6D2F1 (BDF1) mice
Settings: endpoint: mean survival time, higher = longer survival
Summary of the method: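 Read-out is survival time, reported as the treated-group measurement over the vehicle-control measurement.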

[1] = dose: 100.0 mg/kg/injection, schedule: Q01DX001 (ip), vehicle: saline
[2] = dose: 200.0 mg/kg/injection, schedule: Q01DX001 (ip), vehicle: saline
[3] = dose: 400.0 mg/kg/injection, schedule: Q01DX001 (ip), vehicle: saline
[4] = dose: 100.0 mg/kg/injection, schedule: Q01DX009 (ip), vehicle: Klucel (hydroxypropylcellulose) (HPC)
[5] = dose: 100.0 mg/kg/injection, schedule: Q04DX002 (ip), vehicle: Klucel (hydroxypropylcellulose) (HPC)
[6] = dose: 100.0 mg/kg/injection, schedule: Q04DX003 (ip), vehicle: Klucel (hydroxypropylcellulose) (HPC)
[7] = dose: 200.0 mg/kg/injection, schedule: Q01DX009 (ip), vehicle: Klucel (hydroxypropylcellulose) (HPC)
[8] = dose: 200.0 mg/kg/injection, schedule: Q04DX002 (ip), vehicle: Klucel (hydroxypropylcellulose) (HPC)
[9] = dose: 200.0 mg/kg/injection, schedule: Q04DX003 (ip), vehicle: Klucel (hydroxypropylcellulose) (HPC)
[10] = dose: 400.0 mg/kg/injection, schedule: Q01DX009 (ip), vehicle: Klucel (hydroxypropylcellulose) (HPC)
[11] = dose: 400.0 mg/kg/injection, schedule: Q04DX002 (ip), vehicle: Klucel (hydroxypropylcellulose) (HPC)
[12] = dose: 400.0 mg/kg/injection, schedule: Q04DX003 (ip), vehicle: Klucel (hydroxypropylcellulose) (HPC)
[13] = dose: 100.0 mg/kg/injection, schedule: Q01DX009 (ip), vehicle: saline with Tween-80
[14] = dose: 200.0 mg/kg/injection, schedule: Q01DX009 (ip), vehicle: saline with Tween-80
[15] = dose: 400.0 mg/kg/injection, schedule: Q01DX009 (ip), vehicle: saline with Tween-80
[16] = dose: 100.0 mg/kg/injection, schedule: Q04DX003 (ip), vehicle: saline with Tween-80
[17] = dose: 200.0 mg/kg/injection, schedule: Q04DX003 (ip), vehicle: saline with Tween-80
[18] = dose: 400.0 mg/kg/injection, schedule: Q04DX003 (ip), vehicle: saline with Tween-80
[19] = dose: 100.0 mg/kg/injection, schedule: Q04DX003 (ip), vehicle: saline
[20] = dose: 200.0 mg/kg/injection, schedule: Q04DX003 (ip), vehicle: saline
[21] = dose: 400.0 mg/kg/injection, schedule: Q04DX003 (ip), vehicle: saline

Cc1cn(C2OC(C(O)C(N)=O)C(O)C2O)c(=O)[nH]c1=O (stereo not given)
T/C [1]: 97 % of control
T/C [2]: 114 % of control
T/C [3]: 101 % of control

CC1C[N+](C)(C)CC(C)C1=O (stereo not given)
T/C (dose: 12.5 mg/kg/injection, schedule: Q04DX002 (ip), vehicle: saline with Tween-80): 96 % of control
T/C (dose: 25.0 mg/kg/injection, schedule: Q04DX002 (ip), vehicle: saline with Tween-80): 107 % of control
T/C (dose: 50.0 mg/kg/injection, schedule: Q04DX002 (ip), vehicle: saline with Tween-80): 93 % of control

CCOC(=O)c1cc2nc(C(C)C)n(Cc3ccccc3)c2cc(C(=O)OCC)c1=O
T/C (dose: 100.0 mg/kg/injection, schedule: Q01DX001 (ip), vehicle: Klucel (hydroxypropylcellulose) (HPC)): 96 % of control
T/C [4]: 104 % of control and 89 % of control
T/C [5]: 98 % of control and 105 % of control
T/C [6]: 97 % of control
T/C (dose: 200.0 mg/kg/injection, schedule: Q01DX001 (ip), vehicle: Klucel (hydroxypropylcellulose) (HPC)): 91 % of control
T/C [7]: 97 % of control and 89 % of control
T/C [8]: 96 % of control
T/C [9]: 100 % of control
T/C (dose: 400.0 mg/kg/injection, schedule: Q01DX001 (ip), vehicle: Klucel (hydroxypropylcellulose) (HPC)): 100 % of control
T/C [10]: 98 % of control
T/C [11]: 88 % of control and 89 % of control
T/C [12]: 100 % of control

CC(=O)COc1cccc2ccccc12
T/C (dose: 100.0 mg/kg/injection, schedule: Q01DX009 (ip), vehicle: gum acacia): 100 % of control
T/C (dose: 200.0 mg/kg/injection, schedule: Q01DX009 (ip), vehicle: gum acacia): 99 % of control
T/C (dose: 400.0 mg/kg/injection, schedule: Q01DX009 (ip), vehicle: gum acacia): 97 % of control

CC(=O)NC1C(OC(C)=O)OC(COC(c2ccccc2)(c2ccccc2)c2ccccc2)C(OC(C)=O)C1OC(C)=O (stereo not given)
T/C [1]: 108 % of control
T/C [2]: 96 % of control
T/C [3]: 96 % of control

O=C(CCN1CCCCC1)c1ccc([N+](=O)[O-])cc1
T/C [2]: 103 % of control

Nc1ncnc2c1c1c(N)[nH]nc1n2C1OC(CO)C(O)C1O (stereo not given)
T/C (dose: 12.5 mg/kg/injection, schedule: Q01DX009 (ip), vehicle: saline): 114 % of control
T/C (dose: 25.0 mg/kg/injection, schedule: Q01DX009 (ip), vehicle: saline): 121 % of control
T/C (dose: 50.0 mg/kg/injection, schedule: Q01DX009 (ip), vehicle: saline): 150 % of control
T/C [1]: 104 % of control
T/C [2]: 106 % of control
T/C [3]: 121 % of control

NCc1ccc(OCc2nc(N)nc(N)c2-c2ccc(Cl)cc2)cc1
T/C (dose: 25.0 mg/kg/injection, schedule: Q01DX001 (ip), vehicle: saline with Tween-80): 97 % of control
T/C (dose: 50.0 mg/kg/injection, schedule: Q01DX001 (ip), vehicle: saline with Tween-80): 87 % of control
T/C (dose: 100.0 mg/kg/injection, schedule: Q01DX001 (ip), vehicle: saline with Tween-80): 95 % of control and 96 % of control

CCCCCCCCCCNc1ccc(NCCCCCCCCCC)cc1
T/C [4]: 108 % of control
T/C [6]: 95 % of control
T/C [7]: 109 % of control
T/C [9]: 102 % of control
T/C [10]: 90 % of control
T/C [12]: 105 % of control

CC(=O)c1ccc(NCC2N=C(N)N=C(N)N2c2ccccc2)cc1 (stereo not given)
T/C [4]: 97 % of control
T/C [6]: 98 % of control
T/C [7]: 96 % of control
T/C [9]: 90 % of control

CC(C)(C)N=C1OC(=O)c2ccccc21
T/C [13]: 107 % of control
T/C [14]: 98 % of control
T/C [15]: 94 % of control

CSc1ncnc2c1cnn2C1OC(CCC#N)C(O)C1O (stereo not given)
T/C [1]: 97 % of control
T/C [2]: 98 % of control

N#C/C(=C\c1ccco1)C1CCC([N+](=O)[O-])CC1 (stereo not given)
T/C [5]: 104 % of control
T/C [8]: 104 % of control
T/C [11]: 93 % of control

C[N+](C)(Cc1ccccc1)/N=C(\[O-])Cc1ccccc1
T/C [1]: 95 % of control
T/C [2]: 104 % of control

O=C1CCCCC1Oc1ccccc1 (stereo not given)
T/C [13]: 95 % of control
T/C [16]: 95 % of control
T/C [14]: 101 % of control
T/C [17]: 98 % of control
T/C [15]: 86 % of control
T/C [18]: 93 % of control

Clc1ccc(Oc2ccc(N3C=Nc4ccc(Oc5ccc(Cl)cc5)cc4C3)cc2)cc1
T/C [13]: 98 % of control
T/C [16]: 97 % of control
T/C [14]: 96 % of control
T/C [17]: 94 % of control
T/C [15]: 93 % of control
T/C [18]: 89 % of control

CSc1ncc(CO)c(Nc2ccc(F)cc2)n1
T/C [19]: 93 % of control
T/C [20]: 100 % of control
T/C [21]: 98 % of control

CCCCCCCCCCCCCCCC[N+]1(C)CCSCC1
T/C (dose: 0.78 mg/kg/injection, schedule: Q01DX009 (ip), vehicle: saline): 104 % of control
T/C (dose: 1.56 mg/kg/injection, schedule: Q01DX009 (ip), vehicle: saline): 111 % of control
T/C (dose: 3.13 mg/kg/injection, schedule: Q01DX009 (ip), vehicle: saline): 114 % of control
T/C (dose: 6.25 mg/kg/injection, schedule: Q01DX009 (ip), vehicle: saline): 104 % of control

CC(C)Nc1ccc(Nc2ccc(NC(C)C)cc2)cc1
T/C (dose: 1.56 mg/kg/injection, schedule: Q04DX003 (ip), vehicle: alcohol): 102 % of control
T/C (dose: 3.12 mg/kg/injection, schedule: Q01DX009 (ip), vehicle: alcohol): 98 % of control
T/C (dose: 3.12 mg/kg/injection, schedule: Q04DX003 (ip), vehicle: alcohol): 109 % of control
T/C (dose: 6.25 mg/kg/injection, schedule: Q01DX009 (ip), vehicle: alcohol): 94 % of control
T/C (dose: 6.25 mg/kg/injection, schedule: Q04DX003 (ip), vehicle: alcohol): 105 % of control
T/C (dose: 12.5 mg/kg/injection, schedule: Q01DX009 (ip), vehicle: alcohol): 96 % of control
T/C (dose: 12.5 mg/kg/injection, schedule: Q04DX003 (ip), vehicle: alcohol): 95 % of control
T/C (dose: 18.0 mg/kg/injection, schedule: Q01DX009 (ip), vehicle: alcohol): 104 % of control

CN(C)C(=O)C1C2CC3OC(=O)C1C3C2 (stereo not given)
T/C [19]: 100 % of control and 104 % of control
T/C [20]: 94 % of control and 108 % of control
T/C [21]: 100 % of control and 104 % of control

CC(=O)OC1C=CCC2C(=O)c3c(c(O)c4ccccc4c3O)C(=O)C12 (stereo not given)
T/C [13]: 95 % of control
T/C [16]: 95 % of control
T/C [14]: 105 % of control
T/C [17]: 95 % of control
T/C [15]: 100 % of control
T/C [18]: 90 % of control

Nc1ccc(Cl)c(Cl)c1
T/C (dose: 50.0 mg/kg/injection, schedule: Q01DX001 (ip), vehicle: carboxymethylcellulose (CMC)): 98 % of control
T/C (dose: 50.0 mg/kg/injection, schedule: Q01DX009 (ip), vehicle: alcohol): 101 % of control
T/C (dose: 50.0 mg/kg/injection, schedule: Q01DX009 (ip), vehicle: saline with Tween-80): 92 % of control
T/C (dose: 50.0 mg/kg/injection, schedule: Q04DX003 (ip), vehicle: saline with Tween-80): 104 % of control
T/C (dose: 100.0 mg/kg/injection, schedule: Q01DX001 (ip), vehicle: carboxymethylcellulose (CMC)): 93 % of control
T/C (dose: 100.0 mg/kg/injection, schedule: Q01DX009 (ip), vehicle: alcohol): 109 % of control
T/C [13]: 94 % of control
T/C (dose: 100.0 mg/kg/injection, schedule: Q04DX003 (ip), vehicle: alcohol): 114 % of control
T/C [16]: 104 % of control
T/C (dose: 200.0 mg/kg/injection, schedule: Q01DX001 (ip), vehicle: carboxymethylcellulose (CMC)): 95 % of control
T/C (dose: 200.0 mg/kg/injection, schedule: Q01DX009 (ip), vehicle: alcohol): 90 % of control
T/C [14]: 95 % of control
T/C (dose: 200.0 mg/kg/injection, schedule: Q04DX003 (ip), vehicle: alcohol): 97 % of control
T/C [17]: 104 % of control

COc1ccc(C=O)cc1OCCOc1cc(C=O)ccc1OC
T/C (dose: 50.0 mg/kg/injection, schedule: Q01DX009 (ip), vehicle: Klucel (hydroxypropylcellulose) (HPC)): 91 % of control
T/C [4]: 108 % of control
T/C [7]: 94 % of control

CC(NC(N)=O)C(=O)O (stereo not given)
T/C (dose: 100.0 mg/kg/injection, schedule: Q04DX002 (ip), vehicle: saline): 89 % of control
T/C (dose: 200.0 mg/kg/injection, schedule: Q04DX002 (ip), vehicle: saline): 104 % of control
T/C (dose: 400.0 mg/kg/injection, schedule: Q04DX002 (ip), vehicle: saline): 93 % of control
